The record followed here is the METLIN SMRT retention time set (Domingo-Almenara et al. 2019).

A short description of this data set: gradient 5% acetonitrile 3 min, to 50% in 2 min, to 85% in 15 min, held 3 min, 100 µL/min. Particulars: column: Zorbax Extend-C18 2.1 x 50 mm; eluents: water / acetonitrile, 0.1% formic acid. Summed up: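 Pure standards were analyzed in mixtures of ~100 molecules using HPLC coupled to a quadrupole time-of-flight mass spectrometer, in both positive and negative ionization mode. Separation used a Zorbax Extend-C18 column (2.1 × 50 mm, 1.8 μm) at 100 μL/min, with water and acetonitrile each containing 0.1% formic acid. Dead and dwell volumes were 40 μL and 900 μL, and data were collected over 3 months. Retention time was read from computationally picked adduct peaks, each inspected manually.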
`O=C(NCc1ccc2c(c1)OCO2)C1CCN(C(=O)c2ccc(-c3noc(C4CC4)n3)cc2)CC1` had an RP-LC retention time of 796 s.
Compound `O=C(c1cncc(NS(=O)(=O)c2ccc(Cl)cc2)c1)N1CCCc2ccccc21` showed an RP-LC retention time of 880 s.
On to `Cc1ccc(-c2noc(C3CCCN3S(=O)(=O)c3c(C)cc(C)cc3C)n2)cc1` (stereo not given), for which the RP-LC retention time turned out to be 1330 s.
In turn, `CCCN(Cc1ccc(OC)c(OC)c1)Cc1cc(=O)n2ccc(C)cc2n1` yielded an RP-LC retention time of 613 s.
`O=C(NCCN1CCOCC1)C1CCN(Cc2cc3ccccc3n2Cc2ccccc2Cl)CC1`: the RP-LC retention time worked out at 621 s.
Take `O=C(NCc1cccnc1-c1ccccc1)c1cccc(Br)c1`: the RP-LC retention time turned out to be 692 s.
Regarding `COCCC(=O)Nc1c(-c2ccccc2)nc2sc(N3CCCCC3)nn12`, the RP-LC retention time came to 751 s.
Compound `O=C1NC(=O)/C(=C/c2ccc(C(=O)Nc3ccc(C(=O)O)cc3)cc2)S1` returned an RP-LC retention time of 648 s.
Regarding `COc1cc2c(cc1OC)C(C(=O)Nc1ccc3c(c1)OCO3)C(c1cccs1)N(C)C2=O` (stereo not given), the RP-LC retention time is 790 s.
The compound `COc1ccc(S(=O)(=O)N2CCCC(C(=O)N3CCc4ccccc4C3)C2)cc1Cl` (stereo not given) displayed an RP-LC retention time of 1020 s.
Compound `O=C(NCc1cccs1)c1c(O)c2cccnc2n(-c2cccc(F)c2)c1=O` yielded an RP-LC retention time of 1120 s.
The same measure for `CCOc1ccc(-c2nc(C#N)c(N3CCN(C(=O)c4ccccc4Cl)CC3)o2)cc1`: 986 s; for `Cc1ccc(NC(=O)Cn2nc(N3CCSCC3)c3ccccc3c2=O)cc1F`: 976 s; for `O=C(COc1ccc(Cl)cc1)NCC1CCOCC1`: 764 s.
For the compound `COc1ccc(-c2cn3c(CC(=O)N4CCc5ccccc5C4)csc3n2)cc1OC`, the RP-LC retention time was determined as 754 s.
Consider `Cc1ccc(NC(=O)Cc2csc3nc(-c4ccc(C)c(C)c4)cn23)cc1C`, for which the RP-LC retention time came to 850 s.
`Cc1c(C(=O)N2CCOCC2)cnn1-c1cc(-c2nc(C3CC3)no2)ccn1` gave an RP-LC retention time of 797 s.
Regarding `Cc1cc(C)c(S(=O)(=O)N2CCC3(CC2)NCCN=C3NCc2ccccc2C)cc1C`, the RP-LC retention time is 815 s.
Consider `O=C(NCc1ccc(F)cc1)C1CCN(c2cc(N3CCCCC3)ncn2)CC1`, for which the RP-LC retention time was found to be 676 s.
For `Cc1noc(C)c1CCC(=O)NCCOc1cccc2cccnc12`, the RP-LC retention time is 548 s.
As to `CC(C)c1nnc(C2CN(C)CC23CCN(Cc2cc(Cl)ccc2F)CC3)o1` (stereo not given), the RP-LC retention time turned out to be 563 s.
Consider `CSc1ccc(CNC(=O)c2cc3c(=O)n(Cc4ccccc4)ccc3nc2C)cc1`, for which the RP-LC retention time came to 870 s.
In turn, `CCCNC(=O)Nc1cccc(-c2noc(-c3ccc4c(c3)OCO4)n2)c1` gave an RP-LC retention time of 941 s.
In the case of `CC(C)CCNC(=O)C1Cn2cccc2C(=O)N1CC(C)C` (stereo not given), the RP-LC retention time is 799 s.
The same measure for `Cc1ccc(CNC(=O)c2nnc(-c3ccc(S(=O)(=O)N(C)C)cc3)o2)o1`: 826 s; for `Cc1ccc(C2Cn3cnc(C(=O)N4CCC(C(=O)NCCC5=CCCCC5)CC4)c3CO2)cc1` (stereo not given): 819 s; for `Oc1cc(-n2cccn2)c(O)cc1-n1cccn1`: 868 s.
Turning to `O=C(NC1CCN(c2cc(-c3cccs3)[nH]n2)C1)c1ccc(Br)cc1` (stereo not given), the RP-LC retention time stood at 782 s.
As to `O=C(COc1ccc(F)cc1)NCC1(O)CCCC1`, the RP-LC retention time was 667 s.
The compound `Cc1ccc(-c2ccc(=O)n(Cc3noc(C(=O)N4CCC(C)CC4)n3)n2)cc1C` came in with an RP-LC retention time of 1050 s.
Regarding `O=S(=O)(CCc1noc(C2COc3ccccc3O2)n1)c1ccccc1` (stereo not given), the RP-LC retention time amounted to 927 s.
Turning to `CC(C)c1nn2c(S(=O)(=O)NC3CCCC3)c(C(C)C)nc2s1`, the RP-LC retention time turned out to be 1050 s.
Consider `O=C(Cn1c(C(=O)NCc2ccc(F)cc2F)cccc1=O)NC1CCCC1`, for which the RP-LC retention time is 868 s.
`COc1ccccc1C(=O)NC1CCN(c2cc(-c3ccccc3)[nH]n2)C1` (stereo not given) showed an RP-LC retention time of 718 s.
With `Cc1ccc(S(=O)(=O)CC(=O)Nc2nc(-c3ccccc3)cs2)cc1`, the RP-LC retention time was 933 s.
Compound `COc1cccc(-c2nc3ccccc3n2CC(=O)N2CCC(C)CC2)c1` registered an RP-LC retention time of 668 s.
The same measure for `CSc1ccccc1NC(=O)c1coc(NC(=O)c2ccco2)n1`: 699 s.
For the compound `Cc1nc(-c2csc(S(=O)(=O)N3CCCC(C(=O)N4CCc5ccccc54)C3)c2)no1` (stereo not given), the RP-LC retention time came out at 1020 s.
`COCc1cc(=O)n(CC(=O)Nc2ccc(C)c(C)c2)c(N)n1` gave an RP-LC retention time of 647 s.
The same measure for `COc1ccc(CN2CCC(NC(=O)CCc3c(C)noc3C)C2)cn1` (stereo not given): 571 s; for `O=C(Nc1cccc(F)c1)C1CCN(S(=O)(=O)c2cc(C(=O)N3CCCCCC3)cs2)CC1`: 939 s.
As to `O=C(c1ccc2[nH]ccc2c1)N1CCN(c2cc(-c3ccc(Cl)cc3)[nH]n2)CC1`, the RP-LC retention time was 798 s.
In turn, `O=C(CN1CCc2[nH]c3c(F)c(Cl)ccc3c(=O)c2C1)NCc1ccccc1F` gave an RP-LC retention time of 664 s.
`Cc1ccnc(Nc2nc(-c3ccccc3)cs2)c1` yielded an RP-LC retention time of 790 s.
The same measure for `Cc1cc(C)cc(NC(=O)CN2CCC(C(=O)Nc3ccc(C(N)=O)cc3)CC2)c1`: 571 s.
Consider `CC(Cc1ccco1)NC(=O)c1cc(S(=O)(=O)N2CCCCC2)ccc1Cl` (stereo not given), for which the RP-LC retention time was 967 s.
Under `O=C(c1cccc(N2CCNC(c3ccccc3)C2)n1)N1CCCN(c2ncccn2)CC1` (stereo not given) stands 609 s; under `Cc1ccc(Nc2nc(N3CCN(C(=O)c4ccco4)CC3)nc3[nH]ncc23)cc1`, 616 s.
With `CC(C)Cn1c(CCNC(=O)c2ccccc2F)nc2cccnc21`, the RP-LC retention time came to 698 s.
`CC(C)NC(=O)c1ncn2c1C(=O)N(C1CC1)C(C)(C(=O)NCc1ccc(F)cc1)C2` (stereo not given): the RP-LC retention time stood at 673 s.
For the compound `Fc1ccc(Nc2nc(NCC3CCCO3)nc3[nH]ncc23)cc1` (stereo not given), the RP-LC retention time came out at 578 s.
In the case of `Cc1cc(C(=O)N2CCCCCC2c2nnc(C)o2)c(C)o1` (stereo not given), the RP-LC retention time was 755 s.
On to `Cc1ccc(-n2ncc3c(=O)n(Cc4nc(-c5cccc(C(F)(F)F)c5)no4)cnc32)cc1`, for which the RP-LC retention time was 1180 s.
Regarding `Cc1cc(F)ccc1NC(=O)CCNc1cnc2cnccn12`, the RP-LC retention time turned out to be 578 s.
The same measure for `Cc1cc2[nH]c(C(=O)Nc3cc(F)ccc3F)c(CN3CCCC3)c2s1`: 702 s; for `O=C(c1cc(-c2ccncc2)n[nH]1)N1CCC(C(=O)N2CCN(c3ccc(Cl)cc3)CC2)CC1`: 672 s; for `Cc1nc2ccn(Cc3ccco3)c(=O)c2cc1C(=O)NCCCN1CCOCC1`: 578 s.
Turning to `CCN(CC)c1ccc(NC(=O)C2CCCN(S(=O)(=O)c3cn(C(C)C)cn3)C2)c(C)c1` (stereo not given), the RP-LC retention time turned out to be 622 s.
Take `O=C(CSCc1ccccc1)Nc1nnc(-c2ccsc2)o1`: the RP-LC retention time amounted to 757 s.
As to `CCC(=O)NCCc1csc(C2CCCN(C(=O)C3CCC3)C2)n1` (stereo not given), the RP-LC retention time was 676 s.
For the compound `CCn1c(C(=O)NCCCN2CCOCC2)c(N2CCCC2=O)c2cc(F)ccc21`, the RP-LC retention time was determined as 624 s.
Regarding `O=C(CCc1c(-c2ccc(Br)cc2)nc2ccccn12)NC1CC1`, the RP-LC retention time is 610 s.
The same measure for `CSc1ccccc1C(=O)N(Cc1ccsc1)CC(F)(F)F`: 987 s; for `O=C(C1=CN(c2ccc(Cl)cc2)c2ccccc2S1(=O)=O)N1CCCC1`: 827 s; for `CCc1nc(N)n(CC(=O)Nc2ccccc2F)c(=O)c1C`: 599 s.
Under `Cc1cc(C)cc(NC(=O)c2cn(C)nc2S(=O)(=O)N2CCSCC2)c1` stands 1010 s; under `O=C(Nc1cccn2c(C3CCC3)nnc12)c1ccco1`, 696 s.
Compound `Cc1sc(NC(=O)CC(C)C)nc1-c1ccc2c(c1)NC(=O)C(C)O2` (stereo not given) had an RP-LC retention time of 865 s.
`CCOc1ccc(C(=O)Nc2cc(Cl)ccc2C)nn1` displayed an RP-LC retention time of 1040 s.
For the compound `Cc1cc(N2CCOCC2)n2nc(-c3ccc(C(C)(C)C)cc3)nc2n1`, the RP-LC retention time was determined as 960 s.
The same measure for `COc1ccc(NC(=O)N2CCCC2C(=O)Nc2ccc(C)c(Cl)c2)cc1` (stereo not given): 880 s; for `CCOC(=O)c1noc2nc(C)nc(Nc3ccc(OC)cc3)c12`: 938 s; for `Cc1cc(N2CCCC2)nc(N2CCN(C(=O)c3ccc(Br)cc3)CC2)n1`: 713 s.
`Cc1ccc(Nc2c(-c3ccc([N+](=O)[O-])cc3)nc3cc(C)ccn23)cc1` came in with an RP-LC retention time of 790 s.
The same measure for `O=C(NCCCn1cccn1)C1CCc2nc(N3CCCC3)ncc2C1` (stereo not given): 575 s.
As to `CCOC(=O)c1c(S(=O)(=O)N2CCC(C(=O)NCc3ccc(F)cc3)CC2)c(C)n(C)c1C`, the RP-LC retention time was found to be 808 s.
`CCOc1ccc(-c2ccc(=O)n(CCc3nc(-c4ccc(F)cc4)no3)n2)cc1` had an RP-LC retention time of 815 s.
In turn, `Cc1ccc(C(=O)NCc2ccc(-n3ccnc3)cc2)s1` yielded an RP-LC retention time of 602 s.
The same measure for `COc1ccc(CNC(=O)c2cn3ccccc3n2)cc1OC`: 605 s.
The compound `Cc1nc(CCNS(=O)(=O)c2ccc(Cl)cc2)no1` returned an RP-LC retention time of 769 s.
